Key:
Experiment in all cases: Minimum inhibitory concentration (Table I)
Format in all cases: cell-based
[1] = system: Bacillus subtilis ATCC 10707
From the text: (§1) Comparative data similarly obtained by using mitomycin A, mitomycin C and 7-N-phenyl mitomycin C are also shown in this table

[2] = system: Klebsiella pneumoniae ATCC 10031
From the text: as §1

[3] = system: Shigella sonnei ATCC 9290
From the text: as §1

[4] = system: Staphylococcus aureus ATCC 6538P
From the text: as §1

Work on `COC1=C(C)C(=O)C2=C(C1=O)[C@@H](COC(N)=O)[C@@]1(OC)[C@H]3N[C@H]3CN21` [Compound I, mitomycin A] yielded a minimum inhibitory concentration [1] of under 0.025, a minimum inhibitory concentration [2] of under 0.025 and a minimum inhibitory concentration [3] of 0.098. It also gave a minimum inhibitory concentration [4] of under 0.025.
